The structures appear in SMILES notation.

The source of these data is US20140329914A1, “Amphiphilic Peptides for Thoracic Air Leakage Occlusion” (3-D Matrix Ltd., priority 2011, published 2014).

On the set-up of data set [1]: species or system miniature swine (Gottingen). The conditions noted are these: in vivo. As to the method:
Blood for hematological examination was collected by catheter on the day of operation, 3 days after operation, and 7 days after operation, and the day of necropsy. Blood was collected into EDTA-2K coated blood collection tubes (VP-DK052K05, TERUMO Ltd.). Red blood cell count (RBC), white blood cell count (WBC), hemoglobin concentration (HGB), hematocrit (HCT), and platelet count (PLT) were measured using a multi-channel blood cell counter (Sysmex K-4500, Sysmex

A short description of data set [2]: Blood biochemical examination. The data set is classed as in vivo, miniature swine (Gottingen). As to the method:
Blood for biochemical examination was centrifuged at 3,000 rpm at 4° C. for 15 min to obtain serum samples used to measure AST, ALT, ALP, total protein (TP), albumin (Alb), protein fraction (alb), alpha 1 globulin (α1-glb), alpha 2 globulin (α-glb), beta globulin (β-glb), gamma globulin (γ-glb), albumin/globulin ratio (A/G), total bilirubin (T-Bil), urea nitrogen (UN), creatinine (CRE), glucose (Glu), total cholesterol (T-Cho), triglycerides (TG), sodium, potassium, chloride, calcium, inorganic phosphate (IP), and C-reactive protein (CRP).

For data set [3] the following is noted: in vivo. As to the method:
All animals were weighed with a digital platform scale (DUE600ST/M3s-A, Mettler Toledo Ltd.) on the day of operation, 5 days post-operation, and the day of autopsy.
Food consumption was checked every day. Any remaining amount of food was weighed with a digital platform scale (DUE600ST/ID3s-A, Mettler Toledo Ltd.) when present. If there was no uneaten diet, food consumption was recorded as 500 g.

Regarding `CC(=O)N[C@@H](CCCNC(=N)N)C(=O)N[C@@H](C)C(=O)N[C@@H](CC(=O)O)C(=O)N[C@@H](C)C(=O)N[C@@H](CCCNC(=N)N)C(=O)N[C@@H](C)C(=O)N[C@@H](CC(=O)O)C(=O)N[C@@H](C)C(=O)N[C@@H](CCCNC(=N)N)C(=O)N[C@@H](C)C(=O)N[C@@H](CC(=O)O)C(=O)N[C@@H](C)C(=O)N[C@@H](CCCNC(=N)N)C(=O)N[C@@H](C)C(=O)N[C@@H](CC(=O)O)C(=O)N[C@@H](C)C(N)=O` [RADA16, Ac-(RADA)4-CONH2], in data set [1], the “WBC change” value is listed as “elevated level of WBC”. Moreover, the CRE in data set [2] (AD3: 3 days after treatment, per animal and Mean (n=3)) worked out at 1.12 mg/dL. Besides, in data set [2] (in vivo), the “CRP change” value was “elevated level of CRP”. Further, in data set [3], the “body weight and food intake” value is “generally maintained”; the general condition entry is reported as “good general condition”.
